# Tests used:
# [1] = tested on: bone marrow hematopoietic cells and reproductive stem cells
# Experimental: 1) Healthy male rats of equal body weight in each group were reared as the sample (male ICR) (six weeks old). They were reared with 10 rats each in comparative groups 3, 4 and 5 as well as experimental group 4 and 5 rats in experimental group 3.
# The rats of comparative groups 4 and 5 as well as experimental groups 3 and 4 were systemically exposed one time only to a dose of 8 Gy after three weeks of rearing.
# Bone marrow transplant was performed on the rats of each group 24 hours after radiation exposure. In this case, the femur of a donor rat of the same species was cut out. A small piece was cut off from both ends of the femur with a clean bench. Once 1 ml RPMI medium 1640 medium containing 10% antibiotic-antimycotic was injected with a syringe from one end through the medullary cavity, it was pushed into a test tube. The marrow cell count was adjusted to 10^5/ml and 0.5 ml was injected from a caudal vein. The donor rat had been systemically exposed to 2 Gy radiation and reared for three weeks on feed of 1 wt % of the koji mold soybean fermentation and cultivation product added to ordinary food.
# All of the rats were sacrificed, the spleen was excised, spleen weight and the number of spleen colonies formed were determined, and the […] were likewise excised and testicle weight was determined after determining body weight on day 7 after bone marrow transplant.
# Body weight of all rats was determined before bone marrow transplant and on day 7 after transplant.
# [2] = tested on: bone marrow hematopoietic stem cells; assay: Example 4: mouse spleen colony method with radiation exposure and bone marrow transplant, female rats, mixture vs genistein vs 17β estradiole; format: in vivo; details: female ICR, 8 Gy; for spleen weight after radiation exposure per 10 g body weight: day 10 after bone marrow transplant
# Experimental: They were reared with five rats in each group.
# With the exception of comparative groups 8 and 9, bone marrow transplant was performed 24 hours after radiation exposure on the rats of comparative groups 10 and 11 as well as those of experimental groups 7, 8, and 9.
# Body weight of all rats was determined when rearing was started, after one week, and after two weeks and before bone marrow transplant and on day 5, day 7 and day 10 after transplant.
compound,measurement,setting,value
CN(C)CCOc1ccc(/C(=C(/CCCl)c2ccccc2)c2ccccc2)cc1 [toremifen],spleen weight after radiation exposure per 10 g body weight,"[1]; male ICR, 30 mg/kg body weight in feed, 8 Gy, day 7 after bone marrow transplant, compared to unexposed comparative group 3",somewhat lower value than the others
same,testicle weight after radiation exposure per 10 g body weight,"[1]; male ICR, 30 mg/kg body weight in feed, 8 Gy, day 7 after transplant, compared to unexposed comparative group 3",likewise lower
same,toxicity (spleen weight and body weight lower),"[1]; rat, in vivo, 30 mg/kg",considerably stronger than isoflavone aglycone
O=c1c(-c2ccc(O)cc2)coc2cc(O)cc(O)c12 [genistein],spleen weight after radiation exposure per 10 g body weight,"[2]; 30 mg/kg body weight in feed, vs comparative groups 9 and 10",significantly higher
same,number of spleen colonies that formed following transplant after radiation exposure,"[2]; 30 mg/kg body weight in feed, day 10 after transplant, vs comparative groups 10 and 11",significantly higher
same,body weight,"[2]; 30 mg/kg body weight in feed, judging from day 7 after radiation exposure",tendency toward an increase
C[C@]12CC[C@@H]3c4ccc(O)cc4CC[C@H]3[C@@H]1CC[C@@H]2O [17β estradiole],spleen weight after radiation exposure per 10 g body weight,[2]; 10 μg/kg body weight in feed,"lower values than experimental groups 7, 8 and 9"
same,spleen colony formation,"[2]; 10 μg/kg body weight in feed, day 10 after transplant",no augmentation whatsoever

# From patent US20030054549A1, “Stem cell reinforcing material” (priority 2000, published 2003)
